Values quoted from earlier work, collected in patent US4579840A, “Method of blocking immune complex binding to immunoglobulin Fc receptors” (Immunetech Pharmaceuticals, priority 1983, dated 1986).
Ends that are not written are not given here.

Key:
[1] = system: granulocytes, monocytes and macrophages; conditions: in vitro; literature; cited from earlier work
[2] = system: local cutaneous allergic reaction (Prausnitz-Kustner); conditions: Hamburger 1975; cited from earlier work
[3] = target: T1, IgE Fc receptor of human basophils (Homo sapiens, UniProt P12319); conditions: Plummer et al. 1983; cited from earlier work
T1 construct: host or cells: human basophils
T1 sequence (P12319 26-257): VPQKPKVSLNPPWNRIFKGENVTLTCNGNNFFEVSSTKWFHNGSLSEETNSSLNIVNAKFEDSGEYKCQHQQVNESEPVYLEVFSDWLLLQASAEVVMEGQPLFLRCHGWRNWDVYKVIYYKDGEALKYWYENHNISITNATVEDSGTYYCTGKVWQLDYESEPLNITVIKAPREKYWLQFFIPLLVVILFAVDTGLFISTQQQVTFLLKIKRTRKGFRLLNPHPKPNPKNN
T1 sequence (Q01362 1-244 partner): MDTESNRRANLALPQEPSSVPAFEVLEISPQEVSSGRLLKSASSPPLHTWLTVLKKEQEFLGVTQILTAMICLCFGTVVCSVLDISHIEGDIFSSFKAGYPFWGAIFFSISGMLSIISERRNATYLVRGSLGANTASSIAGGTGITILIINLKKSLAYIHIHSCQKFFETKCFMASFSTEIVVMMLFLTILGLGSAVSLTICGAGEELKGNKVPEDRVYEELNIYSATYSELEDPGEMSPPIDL
T1 sequence (P30273 19-86 partner): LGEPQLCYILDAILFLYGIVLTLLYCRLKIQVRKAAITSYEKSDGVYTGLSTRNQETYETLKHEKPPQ

[4] = system: systemic allergic disease; conditions: after injection by the subcutaneous route; cited from earlier work
[5] = system: lymphocytes; conditions: Morgan, Huguli and Weigle 1982; cited from earlier work
[6] = target: C1 (Homo sapiens, UniProt P02745+P02746+P02747); conditions: Prystowsky et al. 1981, Lukas et al. 1981; cited from earlier work
Sequence of C1 (P02745 23-245): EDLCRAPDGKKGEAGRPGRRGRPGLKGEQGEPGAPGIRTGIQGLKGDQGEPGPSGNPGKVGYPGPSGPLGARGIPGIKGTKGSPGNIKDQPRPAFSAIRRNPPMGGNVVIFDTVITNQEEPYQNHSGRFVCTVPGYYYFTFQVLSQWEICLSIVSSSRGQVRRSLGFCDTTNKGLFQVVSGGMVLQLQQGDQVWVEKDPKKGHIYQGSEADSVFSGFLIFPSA
Sequence of C1 (P02746 28-253): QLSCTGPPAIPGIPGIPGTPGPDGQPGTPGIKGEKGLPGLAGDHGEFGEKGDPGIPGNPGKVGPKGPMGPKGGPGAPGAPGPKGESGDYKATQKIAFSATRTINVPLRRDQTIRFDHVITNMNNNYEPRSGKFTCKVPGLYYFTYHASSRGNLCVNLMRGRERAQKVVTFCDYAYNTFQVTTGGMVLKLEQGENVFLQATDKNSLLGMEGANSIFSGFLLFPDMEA
Sequence of C1 (P02747 29-245): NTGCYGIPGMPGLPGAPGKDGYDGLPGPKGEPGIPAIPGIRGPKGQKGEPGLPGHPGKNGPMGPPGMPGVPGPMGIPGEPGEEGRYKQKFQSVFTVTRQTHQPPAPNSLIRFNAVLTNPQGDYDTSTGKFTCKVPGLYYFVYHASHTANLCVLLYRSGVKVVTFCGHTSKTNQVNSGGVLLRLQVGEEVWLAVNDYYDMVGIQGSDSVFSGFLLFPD
Sequence of C1 (P00736 18-705 partner): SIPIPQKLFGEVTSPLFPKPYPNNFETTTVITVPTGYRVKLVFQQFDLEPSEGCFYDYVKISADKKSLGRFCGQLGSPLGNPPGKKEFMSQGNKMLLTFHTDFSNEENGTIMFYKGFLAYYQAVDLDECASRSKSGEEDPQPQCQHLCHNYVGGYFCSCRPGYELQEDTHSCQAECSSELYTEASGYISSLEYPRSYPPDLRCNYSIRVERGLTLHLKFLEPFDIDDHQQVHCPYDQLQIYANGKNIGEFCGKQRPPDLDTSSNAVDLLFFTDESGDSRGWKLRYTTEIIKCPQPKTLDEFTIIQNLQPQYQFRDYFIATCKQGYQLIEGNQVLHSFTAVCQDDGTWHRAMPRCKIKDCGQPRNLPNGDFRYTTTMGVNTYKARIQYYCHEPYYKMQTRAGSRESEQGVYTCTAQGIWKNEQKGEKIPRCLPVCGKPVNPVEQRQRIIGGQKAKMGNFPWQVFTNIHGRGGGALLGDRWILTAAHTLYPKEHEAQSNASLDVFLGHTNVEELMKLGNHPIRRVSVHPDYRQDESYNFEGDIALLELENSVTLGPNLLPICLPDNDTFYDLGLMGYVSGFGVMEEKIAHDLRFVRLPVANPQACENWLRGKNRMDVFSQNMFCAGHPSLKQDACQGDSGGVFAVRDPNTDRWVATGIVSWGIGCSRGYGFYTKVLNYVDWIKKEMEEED
Sequence of C1 (P09871 16-688 partner): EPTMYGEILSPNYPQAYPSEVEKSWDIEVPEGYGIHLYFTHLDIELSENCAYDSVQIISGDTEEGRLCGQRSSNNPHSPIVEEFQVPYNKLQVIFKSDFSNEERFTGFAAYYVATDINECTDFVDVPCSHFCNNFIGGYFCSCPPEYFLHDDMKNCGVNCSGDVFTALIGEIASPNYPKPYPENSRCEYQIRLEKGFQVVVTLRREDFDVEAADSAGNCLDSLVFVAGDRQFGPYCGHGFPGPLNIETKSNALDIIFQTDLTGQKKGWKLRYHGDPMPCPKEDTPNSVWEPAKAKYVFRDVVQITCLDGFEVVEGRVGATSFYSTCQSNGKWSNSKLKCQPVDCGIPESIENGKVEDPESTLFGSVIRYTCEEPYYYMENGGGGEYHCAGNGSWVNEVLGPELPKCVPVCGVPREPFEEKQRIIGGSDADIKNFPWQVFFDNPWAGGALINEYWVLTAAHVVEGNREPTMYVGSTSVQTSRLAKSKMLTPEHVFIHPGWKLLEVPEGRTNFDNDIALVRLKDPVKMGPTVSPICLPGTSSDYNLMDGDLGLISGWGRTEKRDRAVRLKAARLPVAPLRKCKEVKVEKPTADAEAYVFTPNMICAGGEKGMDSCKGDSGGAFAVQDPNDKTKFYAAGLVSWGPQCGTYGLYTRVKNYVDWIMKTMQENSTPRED

[7] = system: human monocyte IgG Fc receptors; conditions: literature (Ciccimarra 1975; Stanworth 1982; Ratcliffe and Stanworth 1982); Tuftsin also 'ourselves'; cited from earlier work
[8] = system: human and rodent mast cells; conditions: Stanworth et al. 1979; cited from earlier work
[9] = system: macrophage IgG Fc receptors of mice; conditions: Stanworth 1982; cited from earlier work

For “Gly-Gln-Pro-Arg (GQPR; printed: Gly-Gln-Pro-Arg) [Rigin]”, the stimulation of phagocytosis [1] is listed as “phagocytosis-stimulating abilities similar to those of Tuftsin”.

For “Asp-Ser-Asp-Pro-Arg (DSDPR; printed: Asp-Ser-Asp-Pro-Arg)”, the “inhibition of local cutaneous allergic reaction (Prausnitz-Kustner)” value [2] is listed as “approximately 90%”, the “block of human IgE binding to basophil IgE Fc receptors” value [3] is listed as “up to 70%” and the “effect on systemic allergic disease in humans” value [4] is listed as “inhibit systemic allergic disease”.

In the case of TISKAKGQPREPQVYTLPSREEM, the “nonspecific activation of lymphocytes” value [5] is given as “induce polyclonal B cell proliferation, antigen-specific antibody responses and Natural Killer (NK) cell-mediated lysis”.

In the case of “Thr-Lys-Pro-Arg (TKPR; printed: Thr-Lys-Pro-Arg) [Tuftsin]”, the “inhibition of C1-mediated hemolysis” value [6] is given as “less active”, the stimulation of phagocytosis [1] is given as “active at nanomolar concentrations” and the “blocking of human IgG binding to human monocyte IgG Fc receptors” value [7] is given as “competitively inhibits”.

In the case of Ac-Phe-Asn-Trp-Tyr-Val (Ac-FNWYV), the “inhibition of C1-mediated hemolysis” value [6] is listed as “less active”.

In the case of QYDSTYR, the “blocking of human IgG binding to human monocyte IgG Fc receptors” value [7] is listed as “could slightly block”.

In the case of PRKTKGSGFFVF, the “degranulation of mast cells” value [8] is listed as “able to cause degranulation”.

For VFSRLEVTRAE, the “binding of 125I-human IgG to mouse macrophages” value [9] is listed as “marked enhancement”.
